Test [1] has as its system external segments of photoreceptor cells. Nature of the test: Ascorbate-induced peroxidation of external segments of photoreceptor cells. The note with it: for Inhibition: 30 min of reacting; for Concentration of TBK-active products: 17 mM compound, 0.5 mM ascorbic acid. The test is classed as biochemical, pig. From the text: The external segments of photoreceptor cells are obtained from pig retinas according to standard procedure, using methods of differential centrifuging in a saccharose density gradient. […] Subsequently, the process was stopped by 15% trichloroacetic acid, and the concentration of TBK-active products has been determined. Samples being free of compound Ic were used as a control.
In these experiments a comparison of the speed of ascorbate-induced peroxidation of external segments of photoreceptor cells of pig eyes has been carried out, said comparison being determined with respect to the accumulation of TBK-active products in the presence of different compound I salts.

Test [2] deals with lipofuscin induced cardiolipin photoperoxidation. Nature of the test: Inhibition of lipofuscin induced cardiolipin liposome photoperoxidation. The note with it: for Concentration of TBK-active products / Inhibition: 2 mM compound. The test is classed as biochemical, human. The protocol: Liposomes are prepared from methanolic solution of cardiolipin (initial concentration: 5 mg/ml) by evaporation of methanol and solubilization of cardiolipin in a phosphate buffer. A mixture comprising a suspension of liposomes and lipofuscin granules, isolated from tissue of a retinal pigmentary epithelium of a human eye, is subjected to irradiation with intensive blue light under constant stirring. Concentration of lipid peroxidation products (TBK-active products) is determined after 20, 40, 60 and 90 minutes. The experimental sample contained 2 mM of a solution of compound Ic, or 2 mM of a solution of mexydole.

Test [3] is described as follows: Antiradical activity by chemiluminescence (rate constant k7). It counts as physicochemical. The note with it: speed constant of reaction with ethyl-benzene peroxide radicals. The protocol: The efficiency of 3-hydroxypyridine derivatives as inhibitors of free radical reactions was determined by hemiluminescent method by means of measurement of speed constants of their reaction with ethyl-benzene k7 peroxide radicals.
The measurements of intensity of chemiluminescence (HL) have been carried out with an apparatus CNK-7, designed and made by IHF RAN USSR. A photomultiplier FAU-38 is used as an optical receiver. The fixed concentration of radicals during oxidation of […] (cumole) is controlled by an initiator being azo-bis-isobutyronitrile.
In order to increase HL emission the activator chelate Eu (europium tristenoyl triphtoroacetonate with 1,10-phenatroline) has been used that has allowed to conduct measurements at low speed values of radical initiation (W1=10^−8-10^−9 mol/I.s.) and, therefore, at small amounts of added sample. A weighed amount of samples studied was diluted in an suitable solvent (chlorobenzene or acetonitrile) and a small amount of the prepared solution (0.1-0.25 ml) was added to the reaction mixture (5-6 ml), arranged in a temperature-controlled reaction vessel of the HL-device. The change of emission intensity was recorded.

In test [4] the test system is acute myocardial ischemia (occlusion of the coronary artery of rats). The experiment in a line: Sizes of necrosis and ischemia zones in acute myocardial ischemia. The test is classed as in vivo, rat. The note with it: rats, within 4 hours after occlusion of the coronary artery. The protocol: The experiments are carried out with non-pedigree male rats having a weight of 250-300 g, which have been anesthetized with sodium ethaminale (40 mg/kg intraperitoneally). A myocardial infarction was modeled for animals, transferred to controlled breathing, by ligation of a descending branch of the left-hand coronary artery to a level of the lower edge of an auricula atrii.
The sizes of necrosis zones and ischemia zones have been determined within 4 hours after occlusion of the coronary artery by a differential indicator method, the principle of which is based on separate quantitative determination of Evans' blue (indicator of an ischemia zone) and red phormazane (indicator of an necrosis zone).

Structures are written as SMILES.

In the case of `Cc1cc(C)c(O)c(C)n1.O=C(O)CC(O)C(=O)O` [Compound Id, 2,4,6-trimethyl-3-oxypyridine malate], in test [1] (compound 43 mM), the “Speed of accumulation of TBK-active products for 30 min of reacting” value (“Speed” for short) is given as 0.1 nmol/mg and the Inhibition stood at 87%.
As for `Cc1cc(C)c(O)c(C)n1.O=C(O)CC(=O)O` [Compound Ib, 2,4,6-trimethyl-3-oxypyridine malonate], in test [1] (compound 44 mM), the “Speed” value turned out to be 0.23 nmol/mg. Moreover, in test [1] (compound 44 mM), the Inhibition is given as 70%. Moreover, the results for the “Concentration of TBK-active products” value in test [1] (response time 0 min), in test [1] (response time 15 min) and in test [1] (response time 30 min) were 1 relative units, 2.70 relative units and 5.09 relative units, respectively.
As to `CCc1ccc(O)c(C)n1.O=C(O)CCC(=O)O` [Mexydole, 2-methyl-6-ethyl-3-hydroxypyridine succinate, reference compound], the “Concentration of TBK-active products” value came to 1.83 nmol/mg lipid in test [2] (radiation time 0 min); 2.84 nmol/mg lipid in test [2] (radiation time 20 min); 3.5 nmol/mg lipid in test [2] (radiation time 40 min); 4.5 nmol/mg lipid in test [2] (radiation time 60 min); 5.0 nmol/mg lipid in test [2] (radiation time 90 min). For the same molecule, the Inhibition in test [2] (radiation time 0 min) turned out to be 0%; in test [2] (radiation time 20 min), 5%; in test [2] (radiation time 40 min) it was 0%; in test [2] (radiation time 60 min) it was 0%; in test [2] (radiation time 90 min), 7%. For the same molecule, in test [2] (result in words), the “Inhibiting / protective effect regarding phototoxic action of lipofuscin granules” value was “practically did not show an inhibiting effect”. Also, in test [3], the “k7 × 10^−4” value came out at 4.5 l/mol × sec. Also, the “Ratio of necrosis zone to ischemia zone” value in test [4] (26 mg/kg) is 46 ± 5.6%. Moreover, the “Ratio of necrosis zone to total mass of the myocardium” value in test [4] (26 mg/kg) is listed as 8 ± 1.4%.
For `Cc1cc(C)c(O)c(C)n1.O=C(O)C(=O)O` [Compound Ia, 2,4,6-trimethyl-3-oxypyridine oxalate], in test [1] (compound 44 mM), the “Speed” value came out at 0 nmol/mg and the Inhibition amounted to 100%.
As to `O=C(NCCO[N+](=O)[O-])c1cccnc1` [Nicorandile], in test [4] (12 mg/kg), the “Ratio of necrosis zone to ischemia zone” value was determined as 42 ± 5.4% and the “Ratio of necrosis zone to total mass of the myocardium” value turned out to be 10 ± 1.6%.

By Inhibition is commonly meant the share of the control response that was lost under treatment. A higher Inhibition goes with strong suppression.
